Measured values reported in US6426229B1, “Chelating agent and detergent comprising the same” (Mitsubishi Rayon Co., Ltd., priority 1995, dated 2002).

Assay: Compression strength (hardening property) of powder stored under load for 2 months
Assay type: physicochemical
Conditions: Load 100 (table head [Kg]; text 100 g/cm^2); 20-30° C., relative humidity 40-70%
Description: Method for the Measurement of Compression Strength
(1) A test sample (500 g) is put in a poly-ethylene bag of 20 cm×20 cm in a room at a temperature of 20-30° C. and a relative humidity of 40-70%. The powder is levelled to an area of 20 cm×20 cm and air is forced out of the bag, and, then, the bag is sealed. This bag is further put in a kraft bag and this kraft bag is sealed.
(2) The kraft bag of (1) is placed horizontally on a flat plate and a plate is put thereon. […]
(3) With keeping the temperature of 20-30° C. and the relative humidity of 40-70%, the test sample is taken out after lapse of 2 months from the starting of application of load. Several test pieces (4 cm long×4 cm broad×2 cm high) are cut out from the sample.

SMILES | Compression strength after stored for 2 months [Kg/cm^2]
O=C([O-])CN[C@@H](CC(=O)[O-])C(=O)[O-].[Na+].[Na+].[Na+] [Example 5, trisodium salt of (S)-aspartic acid-N-monoacetic acid] | 1.2
O=C([O-])CCN[C@@H](CC(=O)[O-])C(=O)[O-].[Na+].[Na+].[Na+] [Example 6, trisodium salt of (S)-aspartic acid-N-monopropionic acid] | 1.2
O=C(O)CN[C@@H](CC(=O)O)C(=O)O [Example 17, (S)-aspartic acid-N-monoacetic acid] | 0.9
O=C(O)CCN[C@@H](CC(=O)O)C(=O)O [Example 18, (S)-aspartic acid-N-monopropionic acid] | 1.2
O=C([O-])CN(CC(=O)[O-])c1ccccc1C(=O)[O-].[Na+].[Na+].[Na+] [Example 30, trisodium salt of anthranilic acid-N,N-diacetic acid] | 1.2
O=C(O)CN(CC(=O)O)c1ccccc1C(=O)O [Example 39, anthranilic acid-N,N-diacetic acid] | 1.2
O=C([O-])CN(CC(=O)[O-])c1ccccc1C(=O)[O-].[Fe+3] [Example 44, iron salt of anthranilic acid-N,N-diacetic acid] | 1.0

Second part, the compound after the results:

Compression strength after stored for 2 months [Kg/cm^2] | SMILES
1.3 | O=C([O-])C[C@@H](C(=O)[O-])N(CC(=O)[O-])CC(=O)[O-].[Na+].[Na+].[Na+].[Na+] [Example 7, tetrasodium salt of (S)-aspartic acid-N,N-diacetic acid]
1.0 | C[C@@H](C(=O)[O-])N(CC(=O)[O-])CC(=O)[O-].[Na+].[Na+].[Na+] [Example 8, trisodium salt of (S)-α-alanine-N,N-diacetic acid]
1.1 | O=C(O)C[C@@H](C(=O)O)N(CC(=O)O)CC(=O)O [Example 19, (S)-aspartic acid-N,N-diacetic acid]
1.0 | C[C@@H](C(=O)O)N(CC(=O)O)CC(=O)O [Example 20, (S)-α-alanine-N,N-diacetic acid]
1.3 | O=C([O-])CN(CCS(=O)(=O)[O-])CC(=O)[O-].[Na+].[Na+].[Na+] [Example 28, trisodium salt of taurine-N,N-diacetic acid]
1.2 | CN(CC(=O)[O-])CC(=O)[O-].[Na+].[Na+] [Example 29, disodium N-methyliminodiacetate]
1.0 | O=C(O)CN(CCS(=O)(=O)O)CC(=O)O [Example 37, taurine-N,N-diacetic acid]
1.1 | CN(CC(=O)O)CC(=O)O [Example 38, N-methyliminodiacetic acid]

Same assay, conditions: Load 200 (table head [Kg]; text 200 g/cm^2); 20-30° C., relative humidity 40-70%

SMILES | Compression strength after stored for 2 months [Kg/cm^2]
O=C([O-])CCN[C@@H](CC(=O)[O-])C(=O)[O-].[Na+].[Na+].[Na+] [Example 2, trisodium salt of (S)-aspartic acid-N-monopropionic acid] | 1.0
O=C([O-])C[C@@H](C(=O)[O-])N(CC(=O)[O-])CC(=O)[O-].[Na+].[Na+].[Na+].[Na+] [Example 3, tetrasodium salt of (S)-aspartic acid-N,N-diacetic acid] | 0.9
C[C@@H](C(=O)[O-])N(CC(=O)[O-])CC(=O)[O-].[Na+].[Na+].[Na+] [Example 4, trisodium salt of (S)-α-alanine-N,N-diacetic acid] | 1.1
O=C(O)CN[C@@H](CC(=O)O)C(=O)O [Example 13, (S)-aspartic acid-N-monoacetic acid] | 1.1
O=C(O)CCN[C@@H](CC(=O)O)C(=O)O [Example 14, (S)-aspartic acid-N-monopropionic acid] | 0.6
O=C(O)C[C@@H](C(=O)O)N(CC(=O)O)CC(=O)O [Example 15, (S)-aspartic acid-N,N-diacetic acid] | 0.9
C[C@@H](C(=O)O)N(CC(=O)O)CC(=O)O [Example 16, (S)-α-alanine-N,N-diacetic acid] | 0.8
O=C([O-])CN(CCS(=O)(=O)[O-])CC(=O)[O-].[Na+].[Na+].[Na+] [Example 25, trisodium salt of taurine-N,N-diacetic acid] | 1.1
CN(CC(=O)[O-])CC(=O)[O-].[Na+].[Na+] [Example 26, disodium N-methyliminodiacetate] | 1.2
O=C([O-])CN(CC(=O)[O-])c1ccccc1C(=O)[O-].[Na+].[Na+].[Na+] [Example 27, trisodium salt of anthranilic acid-N,N-diacetic acid] | 1.0
O=C(O)CN(CCS(=O)(=O)O)CC(=O)O [Example 34, taurine-N,N-diacetic acid] | 1.2
CN(CC(=O)O)CC(=O)O [Example 35, N-methyliminodiacetic acid] | 0.8
O=C(O)CN(CC(=O)O)c1ccccc1C(=O)O [Example 36, anthranilic acid-N,N-diacetic acid] | 0.9
O=C([O-])CN(CC(=O)[O-])c1ccccc1C(=O)[O-].[Fe+3] [Example 43, iron salt of anthranilic acid-N,N-diacetic acid] | 0.9
O=C([O-])CC(NCCNC(CC(=O)[O-])C(=O)[O-])C(=O)[O-].[Na+].[Na+].[Na+].[Na+] (centres unmarked) [Example 46, tetrasodium ethylenediaminedisuccinate] | 1.1
O=C([O-])C[C@H](NCCN[C@@H](CC(=O)[O-])C(=O)[O-])C(=O)[O-].[Na+].[Na+].[Na+].[Na+] [Example 47, tetrasodium (S,S)-ethylenediaminedisuccinate] | 1.2

Same assay, conditions: Load 300 (table head [Kg]; text 300 g/cm^2); 20-30° C., relative humidity 40-70%

SMILES | Compression strength after stored for 2 months [Kg/cm^2]
O=C([O-])CN[C@@H](CC(=O)[O-])C(=O)[O-].[Na+].[Na+].[Na+] [Example 9, trisodium salt of (S)-aspartic acid-N-monoacetic acid] | 0.8
O=C([O-])CCN[C@@H](CC(=O)[O-])C(=O)[O-].[Na+].[Na+].[Na+] [Example 10, trisodium salt of (S)-aspartic acid-N-monopropionic acid] | 1.0
O=C(O)CN[C@@H](CC(=O)O)C(=O)O [Example 21, (S)-aspartic acid-N-monoacetic acid] | 0.8
O=C(O)CCN[C@@H](CC(=O)O)C(=O)O [Example 22, (S)-aspartic acid-N-monopropionic acid] | 0.9
O=C([O-])CN(CC(=O)[O-])c1ccccc1C(=O)[O-].[Na+].[Na+].[Na+] [Example 33, trisodium salt of anthranilic acid-N,N-diacetic acid] | 0.9
O=C(O)CN(CC(=O)O)c1ccccc1C(=O)O [Example 42, anthranilic acid-N,N-diacetic acid] | 1.1

The remaining lines, values ahead:

Compression strength after stored for 2 months [Kg/cm^2] | SMILES
0.8 | O=C([O-])C[C@@H](C(=O)[O-])N(CC(=O)[O-])CC(=O)[O-].[Na+].[Na+].[Na+].[Na+] [Example 11, tetrasodium salt of (S)-aspartic acid-N,N-diacetic acid]
0.9 | C[C@@H](C(=O)[O-])N(CC(=O)[O-])CC(=O)[O-].[Na+].[Na+].[Na+] [Example 12, trisodium salt of (S)-α-alanine-N,N-diacetic acid]
1.0 | O=C(O)C[C@@H](C(=O)O)N(CC(=O)O)CC(=O)O [Example 23, (S)-aspartic acid-N,N-diacetic acid]
0.9 | C[C@@H](C(=O)O)N(CC(=O)O)CC(=O)O [Example 24, (S)-α-alanine-N,N-diacetic acid]
1.0 | O=C([O-])CN(CCS(=O)(=O)[O-])CC(=O)[O-].[Na+].[Na+].[Na+] [Example 31, trisodium salt of taurine-N,N-diacetic acid]
0.8 | CN(CC(=O)[O-])CC(=O)[O-].[Na+].[Na+] [Example 32, disodium N-methyliminodiacetate]
0.9 | O=C(O)CN(CCS(=O)(=O)O)CC(=O)O [Example 40, taurine-N,N-diacetic acid]
1.0 | CN(CC(=O)O)CC(=O)O [Example 41, N-methyliminodiacetic acid]

Same assay, conditions: after 2 months under the load of 200 [g/cm^2]

SMILES | compression strength of the test piece [kg/cm^2] | state of the test piece after storage
O=C([O-])CN[C@@H](CC(=O)[O-])C(=O)[O-].[Na+].[Na+].[Na+] [Example 1, trisodium salt of (S)-aspartic acid-N-monoacetic acid] | 1.2 | it could be disintegrated without any special grinding treatment
